Assay results taken from patent US20260022143A1, “Cyclic Peptide Inhibitors of IL-23” (JANSSEN PHARMACEUTICA NV, priority 2022, published 2026).
Where two headings read alike, the source gives them in different places. Positions of bridges follow the written chain, without caps; N, C: chain ends. Non-standard residues stand in square brackets, D forms with d. Residues, ends and D or L forms follow the SMILES beside them. Trp(7-Me) = Cc1cccc2c(C[C@H](N)C(=O)O)c[nH]c12; 2Nal = N[C@@H](Cc1ccc2ccccc2c1)C(=O)O; AEF = NCCOc1ccc(C[C@H](N)C(=O)O)cc1; dNMeY = CN[C@H](Cc1ccc(O)cc1)C(=O)O; Pen = CC(C)(S)[C@H](N)C(=O)O; αMeK = C[C@](N)(CCCCN)C(=O)O

Assay: Exposed Polar Surface Area (EPSA)
Type: physicochemical
Details: SFC on Chirex 3014 column, sample 1 mM DMSO stock
Description: Exposed Polar Surface Area (EPSA) is an experimental descriptor of molecular polarity obtained from chromatographic retention in supercritical fluid chromatography (SFC).
The stationary phase (Chirex 3014(S)-valine and (R)-1-(alpha-naphthyl) ethylamine) was selected for its balance of lipophilic and polar attributes and its capacity to separate compounds with wide polarity differences. The mobile phase consists of methanol (+Ammonium formate) and CO2. Polar compounds are retained stronger under these conditions and a low-slope gradient of methanol achieves elution based on increasing polarity of the mobile phase. Results are normalized using calibration standards generating a linear relationship between retention times and EPSA values. The unit of EPSA is Å^2.
Along with the measurement of compounds of interest, a series of 8 calibration standards (see Materials) are analyzed generating a linear relationship between retention times and EPSA value. The 8 compounds used as calibration standard have their own EPSA value defined by G. Goetz based on the comparison with TPSA (see G. Goetz, L. Philippe and M. Shapiro, “EPSA: A novel supercritical fluid chromatography technique enabling the design of permeable cyclic peptides,” ACS Med. Chem. Lett., vol. 5, pp. 1167-1172, 2014 for more information). The slope from the linear relationship between EPSA values of these eight compounds and their retention times is used to determine the EPSA value of each compound of interest that's measured under the same condition using the equation as below: […]
The mixture of calibrations standard is reinjected every 20 compounds to validate the stability of the retention time.
The mobile phase modifier consists of ammonium formate LC_MS grade (>99%) (CAS number 540-69-2) diluted to 20 mM in HPLC grade Methanol (MeOH, CAS number 67-56-1) and liquid C02 SFC grade (CAS number 124-38-9).
Antipyrine (CAS number: 60-80-0) Chlorpromazine hydrochloride (CAS number: 69-09-0), desipramine hydrochloride (CAS number: […]), pindolol (CAS Number: 13523-86-9), diclofenac (CAS number: 15307-79-6)), m-nitro benzoic acid (CAS number: 121-92-6), bumetanide (CAS number: 28395-03-1), furosemide (CAS number: 54-31-9) were purchased from Sigma Aldrich (Steihneim, Germany).
All analyses were performed on a ultra performance convergence chromatography (UPC™) apparatus (Waters, Milford, MA, USA) equipped with a sample manager, a binary solvent delivery pump (BSM), a column manager, a convergence manager (automated back pressure regulator), a photo diode array detector (DAD) with a high pressure flow cell, and a mass detector simple quadrupole QDa. After the UV detector, the effluent of the SFC was mixed with an eluent consist of mixture MeOH/water (+0.3% Ammonia) 95/5 delivered by a make up pump with a flow rate of 0.4 mL/min and then split to the QDa using a splitter. The instrument was controlled, and data were processed with Masslynx 4.1.
The Analyses were performed using a 4.6×50 mm Chirex 3014(S)-valine and (R)-1-(alpha- naphthyl) ethylamine column (Phenomenex, Le Pecq, France) with 5 um particle and 100A pore size. The flow rate was 4 mL/min with the outlet pressure set to 14 MPa. The injection volume was 2 μL. the mobile phase composition was varied from 5% to 60% modifier at 20%/ min in a linear gradient, holding at 60% for 1.45 min and reverting to the original 5% until the end of the run. Data are acquired during 5 min. An equilibration time of 1 min is applied between 2 injections resulting in an injection every 6 min. each sample is analyzed in duplicate, resulting in a sample to sample turnaround time of 12 min.
The column temperature was set to 35° C. The mass detector was used in full scan from 100 to 800 for small molecules and from 500 to 1200 for peptides.
Each sample is delivered by compound logistics from DMSO stock solution without dilution. The concentration is 1 mM and the volume is 60 μL.

SMILES: CC(=O)N(C)CCCC[C@@H]1NC(=O)[C@H](Cc2c[nH]c3c(C)cccc23)NC(=O)[C@H]([C@@H](C)O)NC(=O)[C@H](CC(=O)N(C)C)NC(=O)[C@@H](NC(=O)CCOCCOCC[N+](C)(C)C)C(C)(C)SSC(C)(C)[C@@H](C(=O)N[C@@H](Cc2ccc(OCCN)cc2)C(=O)N[C@@H](Cc2ccc3ccccc3c2)C(=O)NC2(C(=O)N[C@@H](CCN(C)C(C)=O)C(=O)N[C@@H](CC(N)=O)C(=O)N[C@@H](Cc3cccnc3)C(=O)N(C)CC(=O)N(C)C)CCC(F)(F)C2)NC1=O (single isomer, unassigned) [compound 180, cPEG3aCO-Pen(3)-N(N(Me)2)-T-7MeW-K(NMeAc)-Pen(3)-AEF-2Nal-diFCpx-Dab(NMeAc)-N-3Pya-Sar-CON(Me)2]
- EPSA: 150.1 Å^2

SMILES: CC(=O)N(C)CCCC[C@@H]1NC(=O)[C@H](Cc2c[nH]c3c(C)cccc23)NC(=O)[C@H]([C@@H](C)O)NC(=O)[C@H](CC(=O)N(C)C)NC(=O)[C@@H](NC(=O)CCOCCOCC[N+](C)(C)C)C(C)(C)SSC(C)(C)[C@@H](C(=O)N[C@@H](Cc2ccc(OCC3CCC([N+](C)(C)C)CC3)cc2)C(=O)N[C@@H](Cc2ccc3ccccc3c2)C(=O)NC2(C(=O)N[C@@H](CCCCN(C)C(C)=O)C(=O)N[C@@H](CC(N)=O)C(=O)N[C@@H](Cc3cccnc3)C(=O)N(C)CC(=O)N(C)C)CCOCC2)NC1=O (single isomer, unassigned) [compound 210, cPEG3aCO-Pen(3)-N(N(Me)2)-T-7MeW-K(NMeAc)-Pen(3)-ACHMF-2Nal-THP-K(NMeAc)-N-3Pya-Sar-CON(Me)2]
- EPSA (read-out: EPSA): 145 A^2

SMILES: CC(=O)N(C)CCCC[C@@H]1NC(=O)[C@H](Cc2c[nH]c3c(C)cccc23)NC(=O)[C@H]([C@@H](C)O)NC(=O)[C@H](CC(=O)N(C)C)NC(=O)[C@@H](NC(=O)CCOCCOCC[N+](C)(C)C)C(C)(C)SSC(C)(C)[C@@H](C(=O)N[C@@H](Cc2ccc(OCC3CCC([N+](C)(C)C)CC3)cc2)C(=O)N[C@@H](Cc2ccc3ccccc3c2)C(=O)NC2(C(=O)N[C@@H](CCCCN(C)C(C)=O)C(=O)N[C@@H](CC(N)=O)C(=O)N[C@@H](Cc3cccnc3)C(=O)N(C)CC(=O)N(C)C)CCOCC2)NC1=O (single isomer, unassigned) [compound 222, cPEG3aCO-Pen(3)-N(N(Me)2)-T-7MeW-K(NMeAc)-Pen(3)-ACHMF-2Nal-THP-K(NMeAc)-N-3Pya-Sar-CON(Me)2]
- EPSA: 142.87 Å^2

SMILES: CC(=O)NCCCC[C@@H]1NC(=O)[C@H](Cc2c[nH]c3c(C)cccc23)NC(=O)[C@H]([C@@H](C)O)NC(=O)[C@H](CC(N)=O)NC(=O)[C@@H](NC(C)=O)C(C)(C)SSC(C)(C)[C@@H](C(=O)N[C@@H](Cc2ccc(OCC3CCC([N+](C)(C)C)CC3)cc2)C(=O)N[C@@H](Cc2ccc3ccccc3c2)C(=O)NC2(C(=O)N[C@@H](CCCCNC(C)=O)C(=O)N[C@@H](CC(N)=O)C(=O)N[C@@H](Cc3cccnc3)C(=O)N(C)CC(N)=O)CCOCC2)NC1=O (single isomer, unassigned) [compound 530, MeCO-Pen(3)-N-T-7MeW-K(Ac)-Pen(3)-ACHMF(S*, S*)-2Nal-THP-K(Ac)-N-3Pya-Sar-CONH2]
- EPSA (read-out: EPSA): 166 A^2

SMILES: CC(=O)NCCCC[C@@H]1NC(=O)[C@H](Cc2c[nH]c3c(C)cccc23)NC(=O)[C@H]([C@@H](C)O)NC(=O)[C@H](CC(N)=O)NC(=O)[C@@H](NC(C)=O)C(C)(C)SSC(C)(C)[C@@H](C(=O)N[C@@H](Cc2ccc(OCCN)cc2)C(=O)N[C@@H](Cc2ccc3ccccc3c2)C(=O)NC2(C(=O)N[C@@H](CCC(=O)O)C(=O)N[C@@H](CC(N)=O)C(=O)N[C@@H](Cc3cccnc3)C(=O)N(C)CC(=O)N3CCOCC3)CCOCC2)NC1=O [SEQ ID 112, MeCO-Pen(3)—N-T-7MeW—K(Ac)-Pen(3)-AEF-2Nal-THIP-E-N-3Pya-Sar-COMor]
- EPSA (read-out: EPSA): 169 A^2

SMILES: CC(=O)NCCCC[C@@H]1NC(=O)[C@H](Cc2c[nH]c3c(C)cccc23)NC(=O)[C@H]([C@@H](C)O)NC(=O)[C@H](CC(N)=O)NC(=O)[C@@H](NC(C)=O)C(C)(C)SSC(C)(C)[C@@H](C(=O)N[C@@H](Cc2ccc(OCCN)cc2)C(=O)N[C@@H](Cc2ccc3ccccc3c2)C(=O)N[C@@](C)(CCCCN)C(=O)N[C@H](CCCCNC(C)=O)C(=O)N[C@@H](CC(N)=O)C(=O)N[C@H](CCCCN)C(=O)N(C)[C@H](Cc2ccc(O)cc2)C(N)=O)NC1=O [compound 5, MeCO-Pen(3)-N-T-7MeW-K(Ac)-Pen(3)-AEF-2Nal-aMeK-k(Ac)-N-dK-NMeDTyr-CONH2] (Ac-[Pen]NT[Trp(7-Me)]K(Ac)[Pen][AEF][2Nal][αMeK][dK](Ac)N[dK][dNMeY]-NH2; disulfide 1-6)
- EPSA (read-out: EPSA): 168 A^2

SMILES: CC(=O)NCCCC[C@@H]1NC(=O)[C@H](Cc2c[nH]c3c(C)cccc23)NC(=O)[C@H]([C@@H](C)O)NC(=O)[C@H](CC(N)=O)NC(=O)[C@@H](NC(C)=O)C(C)(C)SSC(C)(C)[C@@H](C(=O)N[C@@H](Cc2ccc(OCCN)cc2)C(=O)N[C@@H](Cc2ccc3ccccc3c2)C(=O)N[C@@](C)(CCCCN)C(=O)N[C@@H](CCCCNC(C)=O)C(=O)N[C@@H](CC(N)=O)C(=O)N[C@@H](Cc2ccccc2)C(=O)N(C)[C@H](Cc2ccc(O)cc2)C(N)=O)NC1=O [compound 7, MeCO-Pen(3)-N-T-7MeW-K(Ac)-Pen(3)-AEF-2Nal-aMeK-K(Ac)-N-F-NMeDTyr-CONH2] (Ac-[Pen]NT[Trp(7-Me)]K(Ac)[Pen][AEF][2Nal][αMeK]K(Ac)NF[dNMeY]-NH2; disulfide 1-6)
- EPSA (read-out: EPSA): 170 A^2

SMILES: CC(=O)NCCCC[C@@H]1NC(=O)[C@H](Cc2c[nH]c3c(C)cccc23)NC(=O)[C@H]([C@@H](C)O)NC(=O)[C@H](CC(N)=O)NC(=O)[C@@H](NC(C)=O)C(C)(C)SSC(C)(C)[C@@H](C(=O)N[C@@H](Cc2ccc(OCCN)cc2)C(=O)N[C@@H](Cc2ccc3ccccc3c2)C(=O)N[C@@](C)(CCCCN)C(=O)N[C@@H](CCCCNC(C)=O)C(=O)N[C@@H](CC(N)=O)C(=O)N[C@@H](Cc2c[nH]cn2)C(=O)N(C)[C@H](Cc2ccc(O)cc2)C(N)=O)NC1=O [compound 8, MeCO-Pen(3)-N-T-7MeW-K(Ac)-Pen(3)-AEF-2Nal-aMeK-K(Ac)-N-H-NMeDTyr-CONH2] (Ac-[Pen]NT[Trp(7-Me)]K(Ac)[Pen][AEF][2Nal][αMeK]K(Ac)NH[dNMeY]-NH2; disulfide 1-6 (inferred))
- EPSA (read-out: EPSA): 169 A^2

SMILES: CC(=O)NCCCC[C@@H]1NC(=O)[C@H](Cc2c[nH]c3c(C)cccc23)NC(=O)[C@H]([C@@H](C)O)NC(=O)[C@H](CC(N)=O)NC(=O)[C@@H](NC(=O)[C@@H](CCCNC(=N)N)NC(C)=O)C(C)(C)SSC(C)(C)[C@@H](C(=O)N[C@@H](Cc2ccc(OCCN)cc2)C(=O)N[C@@H](Cc2ccc3ccccc3c2)C(=O)N[C@@](C)(CCCCN)C(=O)N[C@@H](CCC(=O)O)C(=O)N[C@@H](CC(N)=O)C(=O)N[C@@H](Cc2c[nH]cn2)C(=O)N(C)[C@H](Cc2ccc(O)cc2)C(N)=O)NC1=O [compound 9, MeCO-r-Pen(3)-N-T-7MeW-K(Ac)-Pen(3)-AEF-2Nal-aMeK-E-N-H-NMeDTyr-CONH2] (Ac-[dR][Pen]NT[Trp(7-Me)]K(Ac)[Pen][AEF][2Nal][αMeK]ENH[dNMeY]-NH2; disulfide 2-7)
- EPSA (read-out: EPSA): 187 A^2

SMILES: CC(=O)NCCCC[C@@H]1NC(=O)[C@H](Cc2c[nH]c3c(C)cccc23)NC(=O)[C@H]([C@@H](C)O)NC(=O)[C@H](CC(N)=O)NC(=O)[C@@H](NC(C)=O)C(C)(C)SSC(C)(C)[C@@H](C(=O)N[C@@H](Cc2ccc(OCCN)cc2)C(=O)N[C@@H](Cc2ccc3ccccc3c2)C(=O)N[C@@](C)(CCCCN)C(=O)N[C@@H](CCCCNC(C)=O)C(=O)N[C@@H](CC(N)=O)C(=O)N[C@@H](CC(N)=O)C(=O)N(C)[C@H](Cc2ccc(O)cc2)C(N)=O)NC1=O [compound 13, MeCO-Pen(3)-N-T-7MeW-K(Ac)-Pen(3)-AEF-2Nal-aMeK-K(Ac)-N-N-NMeDTyr-CONH2] (Ac-[Pen]NT[Trp(7-Me)]K(Ac)[Pen][AEF][2Nal][αMeK]K(Ac)NN[dNMeY]-NH2; disulfide 1-6)
- EPSA (read-out: EPSA): 174 A^2
